Test results from ChEMBL document CHEMBL4715821, “Discovery of 4-ethoxy-7H-pyrrolo[2,3-d]pyrimidin-2-amines as potent, selective and orally bioavailable LRRK2 inhibitors” (Bioorg Med Chem Lett, 2018).

What was measured:
[1] = molecular target: Tau-tubulin kinase 2 (Homo sapiens) (UniProt Q6IQ55); assay: Inhibition of TTBK2 (unknown origin) assessed as residual activity at 1 uM by Kinomescan method relative to control
[2] = molecular target: Serine/threonine-protein kinase OSR1 (Homo sapiens) (UniProt O95747); assay: Inhibition of wild-type human full length OSR1 (M1 to S527 residues) expressed in mammalian expression system assessed as residual activity at 1 uM by Kinomescan method relative to control
Sequence of Serine/threonine-protein kinase OSR1 (Homo sapiens) (O95747 whole entry, looked up, the tested form may be a part): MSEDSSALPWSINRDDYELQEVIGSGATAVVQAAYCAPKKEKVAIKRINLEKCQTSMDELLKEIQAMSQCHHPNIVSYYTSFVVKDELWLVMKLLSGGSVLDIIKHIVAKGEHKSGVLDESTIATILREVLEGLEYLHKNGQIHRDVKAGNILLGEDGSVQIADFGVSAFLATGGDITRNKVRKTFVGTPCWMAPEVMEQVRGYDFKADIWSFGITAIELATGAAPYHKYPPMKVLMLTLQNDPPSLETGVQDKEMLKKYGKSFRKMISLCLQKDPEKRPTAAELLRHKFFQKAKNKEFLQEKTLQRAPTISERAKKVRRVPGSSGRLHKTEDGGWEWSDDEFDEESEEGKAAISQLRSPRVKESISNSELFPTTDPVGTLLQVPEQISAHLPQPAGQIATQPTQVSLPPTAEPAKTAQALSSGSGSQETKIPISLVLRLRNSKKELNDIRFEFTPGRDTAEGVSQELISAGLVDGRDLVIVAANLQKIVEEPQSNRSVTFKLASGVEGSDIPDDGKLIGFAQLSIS

[3] = molecular target: Epithelial discoidin domain-containing receptor 1 (Homo sapiens) (UniProt Q08345); assay: Inhibition of wild-type human partial length DDR1 (R565 to V876 residues) expressed in bacterial expression system assessed as residual activity at 1 uM by Kinomescan method relative to control
Sequence of Epithelial discoidin domain-containing receptor 1 (Homo sapiens) (Q08345 whole entry, the tested form may be a part): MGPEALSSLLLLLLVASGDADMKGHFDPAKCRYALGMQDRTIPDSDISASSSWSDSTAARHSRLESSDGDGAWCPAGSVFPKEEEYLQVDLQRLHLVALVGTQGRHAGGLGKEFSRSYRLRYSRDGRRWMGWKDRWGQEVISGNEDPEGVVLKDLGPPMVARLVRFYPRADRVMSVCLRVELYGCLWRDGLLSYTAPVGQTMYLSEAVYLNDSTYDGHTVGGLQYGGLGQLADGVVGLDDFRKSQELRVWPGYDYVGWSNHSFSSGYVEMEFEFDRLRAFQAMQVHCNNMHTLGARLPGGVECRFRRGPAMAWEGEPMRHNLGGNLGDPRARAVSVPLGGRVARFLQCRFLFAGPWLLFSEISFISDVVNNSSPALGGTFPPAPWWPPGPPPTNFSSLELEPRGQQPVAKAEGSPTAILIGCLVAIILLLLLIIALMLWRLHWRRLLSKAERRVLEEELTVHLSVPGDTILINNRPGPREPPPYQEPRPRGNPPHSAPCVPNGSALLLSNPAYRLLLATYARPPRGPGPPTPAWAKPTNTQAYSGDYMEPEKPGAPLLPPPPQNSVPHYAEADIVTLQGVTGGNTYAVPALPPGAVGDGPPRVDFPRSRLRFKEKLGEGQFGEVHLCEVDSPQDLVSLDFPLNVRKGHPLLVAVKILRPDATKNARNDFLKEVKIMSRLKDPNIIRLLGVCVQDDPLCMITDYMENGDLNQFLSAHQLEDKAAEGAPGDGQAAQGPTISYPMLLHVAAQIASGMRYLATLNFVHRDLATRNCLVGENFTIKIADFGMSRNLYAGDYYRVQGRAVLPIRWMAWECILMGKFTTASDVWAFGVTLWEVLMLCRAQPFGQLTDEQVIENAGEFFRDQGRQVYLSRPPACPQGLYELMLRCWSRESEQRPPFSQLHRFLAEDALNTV

[4] = molecular target: Serine/threonine-protein kinase pim-2 (Homo sapiens) (UniProt Q9P1W9); assay: Inhibition of wild-type human partial length PIM2 (M1 to E291 residues) expressed in bacterial expression system assessed as residual activity at 1 uM by Kinomescan method relative to control
Sequence of Serine/threonine-protein kinase pim-2 (Homo sapiens) (Q9P1W9 whole entry, looked up, the tested form may be a part): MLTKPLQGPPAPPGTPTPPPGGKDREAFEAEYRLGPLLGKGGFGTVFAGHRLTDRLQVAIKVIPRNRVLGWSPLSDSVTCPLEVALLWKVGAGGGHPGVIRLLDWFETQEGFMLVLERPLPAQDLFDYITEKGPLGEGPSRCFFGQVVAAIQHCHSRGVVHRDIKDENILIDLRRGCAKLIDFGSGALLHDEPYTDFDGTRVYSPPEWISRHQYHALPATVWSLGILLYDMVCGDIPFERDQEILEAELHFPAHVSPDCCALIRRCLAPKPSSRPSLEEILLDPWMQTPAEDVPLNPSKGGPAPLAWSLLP

[5] = molecular target: Serine/threonine-protein kinase ULK1 (Homo sapiens) (UniProt O75385); assay: Inhibition of wild-type human partial length ULK1 (M1 to T309 residues) expressed in mammalian expression system assessed as residual activity at 1 uM by Kinomescan method relative to control
Sequence of Serine/threonine-protein kinase ULK1 (Homo sapiens) (O75385 whole entry, the tested form may be a part): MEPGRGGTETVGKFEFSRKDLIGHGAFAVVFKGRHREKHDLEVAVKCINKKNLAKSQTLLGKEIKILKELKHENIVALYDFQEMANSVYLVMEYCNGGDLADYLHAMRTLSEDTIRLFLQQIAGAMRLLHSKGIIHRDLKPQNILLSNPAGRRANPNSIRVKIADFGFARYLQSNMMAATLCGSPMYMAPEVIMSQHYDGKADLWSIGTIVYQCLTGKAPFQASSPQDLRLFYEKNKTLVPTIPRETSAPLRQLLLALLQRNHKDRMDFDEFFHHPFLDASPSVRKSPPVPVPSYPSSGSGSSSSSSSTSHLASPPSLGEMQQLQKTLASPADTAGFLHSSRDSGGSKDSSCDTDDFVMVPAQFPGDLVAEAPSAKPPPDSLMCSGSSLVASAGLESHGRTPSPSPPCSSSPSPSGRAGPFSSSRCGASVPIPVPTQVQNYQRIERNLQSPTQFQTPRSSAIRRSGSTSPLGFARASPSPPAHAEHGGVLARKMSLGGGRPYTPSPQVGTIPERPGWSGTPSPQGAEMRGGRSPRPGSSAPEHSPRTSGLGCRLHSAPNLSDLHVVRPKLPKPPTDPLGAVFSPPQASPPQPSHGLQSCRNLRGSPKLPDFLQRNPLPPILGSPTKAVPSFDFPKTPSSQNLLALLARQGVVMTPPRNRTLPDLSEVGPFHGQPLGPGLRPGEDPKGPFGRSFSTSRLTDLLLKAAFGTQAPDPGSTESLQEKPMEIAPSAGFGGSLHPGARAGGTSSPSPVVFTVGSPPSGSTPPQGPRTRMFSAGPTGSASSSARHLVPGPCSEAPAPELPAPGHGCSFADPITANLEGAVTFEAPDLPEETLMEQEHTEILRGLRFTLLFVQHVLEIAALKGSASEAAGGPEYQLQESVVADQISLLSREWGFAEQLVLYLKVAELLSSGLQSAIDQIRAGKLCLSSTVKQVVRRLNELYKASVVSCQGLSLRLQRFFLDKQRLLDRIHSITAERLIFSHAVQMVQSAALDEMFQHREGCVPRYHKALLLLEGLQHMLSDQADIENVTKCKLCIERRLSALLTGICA

[6] = molecular target: Testis-specific serine/threonine-protein kinase 3 (Homo sapiens) (UniProt Q96PN8); assay: Inhibition of wild-type human full length TSSK3 (M1 to T268 residues) expressed in mammalian expression system assessed as residual activity at 1 uM by Kinomescan method relative to control
Sequence of Testis-specific serine/threonine-protein kinase 3 (Homo sapiens) (Q96PN8 whole entry, the tested form may be a part): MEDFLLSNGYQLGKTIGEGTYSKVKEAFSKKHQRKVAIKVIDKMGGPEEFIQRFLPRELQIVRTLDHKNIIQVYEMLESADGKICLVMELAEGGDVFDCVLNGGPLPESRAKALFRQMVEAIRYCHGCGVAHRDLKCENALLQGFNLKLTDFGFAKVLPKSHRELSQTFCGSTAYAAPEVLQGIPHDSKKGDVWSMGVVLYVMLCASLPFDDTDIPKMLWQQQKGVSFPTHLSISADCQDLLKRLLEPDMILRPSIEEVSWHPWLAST

Sequence of Tau-tubulin kinase 2 (Homo sapiens) (Q6IQ55 whole entry, the tested form may be a part): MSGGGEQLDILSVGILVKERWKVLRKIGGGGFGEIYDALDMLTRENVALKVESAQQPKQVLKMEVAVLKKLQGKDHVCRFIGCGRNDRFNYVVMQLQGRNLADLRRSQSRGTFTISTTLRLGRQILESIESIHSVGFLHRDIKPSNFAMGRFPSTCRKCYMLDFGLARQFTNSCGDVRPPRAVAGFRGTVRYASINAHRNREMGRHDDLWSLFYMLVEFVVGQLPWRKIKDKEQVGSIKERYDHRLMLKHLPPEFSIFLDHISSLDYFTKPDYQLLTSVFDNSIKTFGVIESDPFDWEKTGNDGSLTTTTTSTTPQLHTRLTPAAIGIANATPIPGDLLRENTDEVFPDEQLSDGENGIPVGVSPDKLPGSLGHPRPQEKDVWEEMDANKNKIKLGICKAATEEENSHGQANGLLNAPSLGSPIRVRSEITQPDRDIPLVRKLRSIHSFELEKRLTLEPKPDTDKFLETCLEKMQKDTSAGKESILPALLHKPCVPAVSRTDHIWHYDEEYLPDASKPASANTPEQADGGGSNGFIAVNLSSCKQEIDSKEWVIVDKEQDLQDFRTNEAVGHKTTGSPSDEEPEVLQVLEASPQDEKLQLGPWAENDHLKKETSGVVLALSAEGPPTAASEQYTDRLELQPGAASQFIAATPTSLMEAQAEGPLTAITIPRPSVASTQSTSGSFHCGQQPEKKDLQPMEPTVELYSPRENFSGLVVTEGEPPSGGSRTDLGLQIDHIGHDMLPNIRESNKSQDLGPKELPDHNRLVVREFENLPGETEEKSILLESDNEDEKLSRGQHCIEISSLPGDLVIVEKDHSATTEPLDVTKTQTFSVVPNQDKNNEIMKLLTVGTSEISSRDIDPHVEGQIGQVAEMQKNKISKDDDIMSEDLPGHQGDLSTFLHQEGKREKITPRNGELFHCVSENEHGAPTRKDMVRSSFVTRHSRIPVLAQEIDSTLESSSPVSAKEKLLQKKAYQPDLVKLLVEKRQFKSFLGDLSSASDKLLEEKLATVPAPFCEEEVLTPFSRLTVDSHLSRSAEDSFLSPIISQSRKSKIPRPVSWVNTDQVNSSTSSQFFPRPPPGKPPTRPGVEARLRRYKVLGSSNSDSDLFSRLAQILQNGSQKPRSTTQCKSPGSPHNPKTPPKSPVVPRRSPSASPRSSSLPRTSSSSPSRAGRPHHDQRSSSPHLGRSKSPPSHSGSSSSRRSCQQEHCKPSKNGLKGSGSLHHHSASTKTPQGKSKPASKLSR

Q: Which results are given for CCOc1nc(Nc2ccc(C(=O)N3CCOCC3)cc2OC)nc2[nH]ccc12?
A: Activity [1]: 104%; Activity [2]: 101%; Activity [3]: 102%; Activity [4]: 94.7%; Activity [5]: 86.1%; Activity [6]: 116%
